In patent publication US20240293413A1, “COMPOUND AND METHOD FOR TREATING CHEMOTHERAPY-RELATED GASTROINTESTINAL SIDE EFFECTS” (ONQUALITY PHARMACEUTICALS CHINA LTD., priority 2021, published 2024):

What was measured:
[1] = tested on: Chemotherapeutic agent-caused constipation models of Balb/c mice; assay: Examples 272-342 (Table 5): oral CDK inhibitor, relief of constipation caused by a chemotherapeutic agent; assay type: in vivo;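 further: percent of treated mice relieved versus chemotherapy group by feces reduction rate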
Summary of the method: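 Feces reduction rate (%) = (control − treated)/control × 100%, based on the 3-hour feces amount recorded each day. Groups of 10 Balb/c mice received solvent, chemotherapeutic agent alone, or an oral CDK inhibitor before the chemotherapeutic agent.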

[2] = tested on: diarrhea caused by the continuous administration of a chemotherapeutic agent in Balb/c mice; assay: Examples 444-469 (Table 9): oral CDK inhibitor, diarrhea caused by continuous administration of a chemotherapeutic agent; assay type: in vivo
Description: Balb/c mice were fed for 1 week, and then divided into groups. The experiment was divided into a control group, a chemotherapeutic agent group, and a CDK inhibitor group, each of which comprised 10 mice, to perform the administration experiment, for which the administration dosage, mode, time and frequency were shown in Table 9. The control group: being intragastrically administered with the same solvent as that used in the CDK inhibitor group (the time was shown in Table 9), and then being injected/intragastrically administered with the same solvent as that used in the chemotherapeutic agent group (the administration mode was shown in Table 9): the chemotherapeutic agent group: being intragastrically administered with the same solvent as that used in the CDK inhibitor group (the time was shown in Table 9), and then being injected/intragastrically administered with the chemotherapeutic agent (the type, administration mode, dosage and duration time were shown in Table 9): the CDK inhibitor group: being intragastrically administered with the CDK inhibitor (the time was shown in Table 9), and then being administered with the chemotherapeutic agent (the type, administration mode, dosage and duration time were shown in Table 9).
The scoring of diarrhea can refer to the method of Akinobu Kurita (Cancer Chemother Pharmacol 2000: 46:211-20.), Grade 0: normal feces: Grade 1: mild diarrhea, the stools is slightly wet and soft: Grade 2: moderate diarrhea, loose stools and mild perianal contamination: Grade 3: severe diarrhea, watery stools and accompanied by severe perianal staining (see FIG. 1). It is regarded as effective remission when the diarrhea grading of mice in the CDK inhibitor group is reduced compared with the average diarrhea grading of mice in the chemotherapeutic agent group.
The diarrhea grading of mice was observed and recorded every day. At the end of the experiment, the number of mice in the CDK inhibitor group whose diarrhea grading was lower than that of mice in the chemotherapeutic agent group was recorded. Table 9 lists various animal experiment combinations of chemotherapeutic agents and CDK inhibitors, as well as the corresponding experimental results. (Relative remission rate %=the number of mice in the CDK inhibitor group whose diarrhea has been effectively relieved/the total number of mice in the CDK inhibitor group*100%. The establishment rate of diarrhea model in the chemotherapeutic agent group was 50%-80%, that is, about 5-8 of 10 mice developed diarrhea during the experiment, and there were cases of individual mice death or not developing diarrhea.)

CN1CCN(c2ccc(Nc3ncc4cc5n(c4n3)C3(CCCCC3)CNC5=O)nc2)CC1 [Trilaciclib (G1T28), Trilaciclib]
Relative remission rate ([1]; Example 272, Fluorouracil (5-Fu) intraperitoneal injection 175 mg/kg single, CDK inhibitor oral 100 mg/kg single, 0.5 h before, cycle 7 days): 50%
Relative remission rate ([1]; Example 273, Fluorouracil (5-Fu) intraperitoneal injection 175 mg/kg single, CDK inhibitor oral 100 mg/kg single, 1 h before, cycle 7 days): 50%
Relative remission rate ([1]; Example 274, Fluorouracil (5-Fu) intraperitoneal injection 175 mg/kg single, CDK inhibitor oral 100 mg/kg single, 2 h before, cycle 7 days): 50%
Relative remission rate ([1]; Example 275, Fluorouracil (5-Fu) intraperitoneal injection 175 mg/kg single, CDK inhibitor oral 100 mg/kg single, 3 h before, cycle 7 days): 40%
Relative remission rate ([1]; Example 276, Fluorouracil (5-Fu) intraperitoneal injection 175 mg/kg single, CDK inhibitor oral 100 mg/kg single, 4 h before, cycle 7 days): 60%
Relative remission rate ([1]; Example 277, Fluorouracil (5-Fu) intraperitoneal injection 175 mg/kg single, CDK inhibitor oral 100 mg/kg single, 5 h before, cycle 7 days): 40%
Relative remission rate ([1]; Example 278, Fluorouracil (5-Fu) intraperitoneal injection 175 mg/kg single, CDK inhibitor oral 100 mg/kg single, 6 h before, cycle 7 days): 60%
Relative remission rate ([1]; Example 279, Fluorouracil (5-Fu) intraperitoneal injection 175 mg/kg single, CDK inhibitor oral 100 mg/kg single, 7 h before, cycle 7 days): 70%
Relative remission rate ([1]; Example 280, Fluorouracil (5-Fu) intraperitoneal injection 175 mg/kg single, CDK inhibitor oral 100 mg/kg single, 8 h before, cycle 7 days): 70%
Relative remission rate ([1]; Example 281, Fluorouracil (5-Fu) intraperitoneal injection 175 mg/kg single, CDK inhibitor oral 100 mg/kg single, 9 h before, cycle 7 days): 60%
Relative remission rate ([1]; Example 282, Fluorouracil (5-Fu) intraperitoneal injection 175 mg/kg single, CDK inhibitor oral 100 mg/kg single, 10 h before, cycle 7 days): 60%
Relative remission rate ([1]; Example 283, Fluorouracil (5-Fu) intraperitoneal injection 175 mg/kg single, CDK inhibitor oral 100 mg/kg single, 11 h before, cycle 7 days): 50%
Relative remission rate ([1]; Example 284, Fluorouracil (5-Fu) intraperitoneal injection 175 mg/kg single, CDK inhibitor oral 100 mg/kg single, 12 h before, cycle 7 days): 70%
Relative remission rate ([1]; Example 285, Fluorouracil (5-Fu) intraperitoneal injection 175 mg/kg single, CDK inhibitor oral 100 mg/kg single, 13 h before, cycle 7 days): 40%
Relative remission rate ([1]; Example 286, Fluorouracil (5-Fu) intraperitoneal injection 175 mg/kg single, CDK inhibitor oral 100 mg/kg single, 14 h before, cycle 7 days): 60%
Relative remission rate ([1]; Example 287, Fluorouracil (5-Fu) intraperitoneal injection 175 mg/kg single, CDK inhibitor oral 100 mg/kg single, 16 h before, cycle 7 days): 50%
Relative remission rate ([1]; Example 288, Fluorouracil (5-Fu) intraperitoneal injection 175 mg/kg single, CDK inhibitor oral 100 mg/kg single, 18 h before, cycle 7 days): 60%
Relative remission rate ([1]; Example 289, Fluorouracil (5-Fu) intraperitoneal injection 175 mg/kg single, CDK inhibitor oral 100 mg/kg single, 20 h before, cycle 7 days): 50%
Relative remission rate ([1]; Example 290, Fluorouracil (5-Fu) intraperitoneal injection 175 mg/kg single, CDK inhibitor oral 100 mg/kg single, 22 h before, cycle 7 days): 30%
Relative remission rate ([1]; Example 291, Fluorouracil (5-Fu) intraperitoneal injection 175 mg/kg single, CDK inhibitor oral 100 mg/kg single, 24 h before, cycle 7 days): 30%
Relative remission rate ([1]; Example 292, Fluorouracil (5-Fu) intraperitoneal injection 175 mg/kg single, CDK inhibitor oral 100 mg/kg single, 48 h before, cycle 7 days): 0%
Relative remission rate ([1]; Example 303, Fluorouracil and oxaliplatin intraperitoneal injection 100 (F) 10 (O) mg/kg single, CDK inhibitor oral 100 mg/kg single, 24 h before, cycle 10 days): 40%
Relative remission rate ([1]; Example 311, Irinotecan (CPT-11) intramuscular injection 260 mg/kg single, CDK inhibitor oral 50 mg/kg single, 1 h before, cycle 7 days): 60%
Relative remission rate ([1]; Example 314, Fluorouracil and oxaliplatin and irinotecan intraperitoneal injection 70 (F) 5 (O) 100 (I) mg/kg single, CDK inhibitor oral 180 mg/kg single, 12 h before, cycle 10 days): 60%
Relative remission rate ([1]; Example 323, Docetaxel (DTX) intravenous injection 10 mg/kg single, CDK inhibitor oral 100 mg/kg single, 9 h before, cycle 8 days): 60%
Relative remission rate ([1]; Example 327, Cytarabine (Ara-C) intraperitoneal injection 600 mg/kg single, CDK inhibitor oral 100 mg/kg single, 0.5 h before, cycle 8 days): 80%
Relative remission rate ([1]; Example 328, Cytarabine (Ara-C) intraperitoneal injection 600 mg/kg single, CDK inhibitor oral 100 mg/kg single, 4 h before, cycle 8 days): 60%
Relative remission rate ([1]; Example 329, Cytarabine (Ara-C) intraperitoneal injection 600 mg/kg single, CDK inhibitor oral 100 mg/kg single, 8 h before, cycle 8 days): 40%
Relative remission rate ([1]; Example 330, Cytarabine (Ara-C) intraperitoneal injection 600 mg/kg single, CDK inhibitor oral 100 mg/kg single, 12 h before, cycle 8 days): 40%
Relative remission rate ([1]; Example 331, Cytarabine (Ara-C) intraperitoneal injection 600 mg/kg single, CDK inhibitor oral 100 mg/kg single, 24 h before, cycle 8 days): 40%
Relative remission rate ([1]; Example 332, Cytarabine (Ara-C) intraperitoneal injection 600 mg/kg single, CDK inhibitor oral 100 mg/kg single, 48 h before, cycle 8 days): 0%
Relative remission rate ([2]; Examples 452-455 (one value given; 2 h, 4 h, 6 h, 8 h before), Fluorouracil (5-Fu) intraperitoneal injection 70 mg/kg once a day, for 7 days, CDK inhibitor oral 125 mg/kg once a day, for 7 days, cycle 10 days): 10%
Relative remission rate ([2]; Examples 458-461 (one value given; 2 h, 4 h, 6 h, 8 h before), Capecitabine oral administration 1000 mg/kg (printed 100/0 wrapped) once a day, for 5 days, CDK inhibitor oral 100 mg/kg once a day, for 5 days, cycle 14 days): 50%
relieving effect on diarrhea ([2]; continuous administration of fluorouracil and capecitabine for 7 days or above): not significant
relieving effect on diarrhea ([2]; continuous administration of fluorouracil for less than 7 days): significant relieving effects
